Experiments:
[1] = system: BBB organoids; assay: BBB permeability and anti-inflammatory activity in BBB organoids; type: cell-based; details: 6.7 μM, 3 days, compared to FNH79 at 20 μM
Procedure: BBB permeability of IN2.2 was also determined in BBB organoids (Cho et al., Nat Commun 2017, 8:15623). Pools of -50 organoids were treated for 3 days with IL1-β and DMSO or compounds (FNH79 at 20 μM, IN2.2 at 6.7 μM) and collected in RNA-Bee reagent (Amsbio). qPCR for IL6 and IL8 expression was performed (mean±s.d., n=3).

[2] = system: CK2; assay: Target engagement in mouse brain homogenates (Cyclex CK2 ELISA kit); type: in vivo; details: single dose 25.6 mg/kg i.p., in comparison to FNH79
Procedure: Animals. All animal procedures were approved by the Institutional Animal Care and Use Committee of The Salk Institute for Biological Studies. Wildtype male C57BL/6 mice (2-3 months old) were housed under standard 12-h light/dark cycles with free access to food and water. IN2.2 or vehicle (3% hydroxypropylmethylcellulose, HPMC) was injected as a single dose (25.6 mg/kg) i.p. mice (n=6 and n=3 controls). Blood was collected at t=0, 0.5, 1, 2, 4, 8, 24 via retro-orbital bleeding and allowed to clot at room temperature to separate serum and clarified. At the final timepoint, mice were anesthetized with ketamine and tissues were harvested. Drug concentrations in serum and tissues were determined by LC/MS-MS. Target engagement in the brain was determined in brain homogenates from treated animals using the Cyclex CK2 ELISA kit. […] Tolerability was assessed mice (mean±s.d., n=5) by injecting with JKT56/IN3.2 daily at 20 mg/kg and monitoring closely for any signs of toxicity based on body weight changes and behavior/appearance (e.g. signs of distress, rough coat, squinty eyes, hunched posture).
IN2.2 or vehicle (3% wt/wt hydroxpropymethylcellulose aqueous solution) was injected as a single dose (25.6 mg/kg) i.p. in 2-3 month old C57Bl/6Nhsd mice (n=6 and n=3 controls). […] Drug concentrations in serum and tissues were determined by LC/MS-MS. […]

[3] = system: 468 human kinases; details: testing concentration of 1 μM; cited from earlier work
[4] = system: AKT pS473; assay: Immunofluorescence of AKT pS473 in IL1β-stimulated primary astrocytes; type: cell-based; details: IL1-β for 5 h
Procedure: (§1) Immunotluorescence. […] After treatment, cells were fixed with 4% paraformaldehyde solution for 20 min at room temperature and washed 3× with DPBS for 10 min each. The cells were permeabilized using 5% horse serum and 10% Triton X in DPBS for 15 min at room temperature and blocked with 5% horse serum in PBS for 30 min at room temperature. Cells were incubated with primary antibodies in blocking buffer either overnight at 4° C. or for 2 hours at room temperature. After incubation, cells were washed 3× with PBS, blocked using 5% horse serum in PBS for 30 min at room temperature, and incubated with Cy3 red-labeled or AF488 green-labeled secondary antibodies diluted in blocking buffer for 1 hour at room temperature. The cells were washed once with PBS for 10 min, then counter-stained with DAPI. The cells were washed 3× with PBS and mounted with glass coverslips and Immu-Mount solution. Images were obtained with the Zeiss fluorescent microscope. […]

[5] = system: IL6 and IL8 expression in astrocytes; assay: Activation assay, ddPCR of cytokine expression in IL1-β-activated astrocytes; type: cell-based, human; details: 5 h treatment
Procedure: Activation assays and ddPCR. HCA or H1-derived astrocytes were treated with vehicle (DMSO) or 20 μM compound and stimulated with IL1-B 10 ng/mL for 5 h. Cells were scraped into RNA-Bee and total RNA was purified using the Direct-zol RNA kit (Zymo Research). RNA concentration was measured using Nanodrop and RNA was reverse transcribed into cDNA using the High Capacity cDNA Reverse Transcriptase Kit (Applied Biosystems). Reaction mixes consisting of TaqMan FAM probe (IL6, IL8, CSNK2A1, CSNK2A2), control TaqMan ACTB-VIC probe (TFS 4326315E), ddPCR Supermix for Probes (Bio-Rad 186-3024), and cDNA were formed into oil droplets using the QX200 Droplet Generator. After amplification (Bio-Rad C1000 Touch Thermal Cycler) according to manufacturer's instructions, the plate was read in the QX200 Droplet Reader.

[6] = system: CK2 Y255; assay: Immunofluorescence of CK2 Y255 phosphorylation in nuclei of primary human astrocytes; type: cell-based; details: 20 μM, 5 h
Procedure: as §1

[7] = system: IκB S32; assay: Immunoblot of IκB S32 in IL1-β-stimulated astrocytes; type: cell-based, human; details: after 5 hours
Procedure: Western blotting. […] Cells were dissociated with 1:1 Accutase:papain for 3 min at rt, pelleted for 5 min at 800 g, and washed twice with cold DPBS. Pellets were lysed with RIPA buffer (Sigma R0278) supplemented with Halt protease inhibitor cocktail (Thermo Fisher 78445) and clarified by centrifugation (16,000 g, 10 min, 4° C.). Protein concentration was determined by BCA assay (Thermo Fisher). Proteins were denatured in 1×LDS Buffer and 2.5% beta-mercaptoethanol (X) for 10 min at 70° C., separated on Bolt 4-12% Bis-Tris Plus polyacrylamide gels (Thermo Fisher), transferred to PVDF membranes using the iBlot 2 Dry Blotting System, and blocked with 0.1% casein-PBS (Bio-Rad) for 1 h at room temperature. The blots were incubated with primary antibodies overnight at 4° C. in PBS containing 0.1% casein and 0.2% Tween-20. Antibodies used: rabbit anti-CK2a1 (Bethyl #, 1:5000), rabbit anti-CK2a2 (Bethyl #, 1:5000), mouse anti-GAPDH (Fitzgerald #10-1501, 1:20,000), mouse anti-NF-KB (CST #6956S, 1:1000), pNF-KB S529 (TFS #14-9864-82, 1:100), LC3B (CST 2775, 1:1000), ACO2 (CST 6922, 1:1000), rabbit HMGB1 (Novus #NB1002322, 1:1000), mouse anti-IκBα (CST #4814S, 1:1000), mouse anti-IκBa pS32 (SC #8404, 1:500), HA-tag (Bethyl #A190-108A, 1:20000). […] The blots were imaged using the Odyssey CLx imaging system and blots were analyzed on the ImageStudio software (LI-COR). […]

[8] = system: NF-κB pS529; assay: Immunofluorescence of NF-κB and NF-κB pS529 in activated astrocytes; type: cell-based, human
Procedure: Immunotluorescence. […] After treatment, cells were fixed with 4% paraformaldehyde solution for 20 min at room temperature and washed 3× with DPBS for 10 min each. The cells were permeabilized using 5% horse serum and 10% Triton X in DPBS for 15 min at room temperature and blocked with 5% horse serum in PBS for 30 min at room temperature. Cells were incubated with primary antibodies in blocking buffer either overnight at 4° C. or for 2 hours at room temperature. After incubation, cells were washed 3× with PBS, blocked using 5% horse serum in PBS for 30 min at room temperature, and incubated with Cy3 red-labeled or AF488 green-labeled secondary antibodies diluted in blocking buffer for 1 hour at room temperature. The cells were washed once with PBS for 10 min, then counter-stained with DAPI. The cells were washed 3× with PBS and mounted with glass coverslips and Immu-Mount solution. Images were obtained with the Zeiss fluorescent microscope. The following primary antibodies were used: rabbit anti-NF-κB (1:400; CST), mouse anti-phospho NF-κB S529 (20 ug/ml; Thermo Fisher), rabbit anti-CK2A1 (1:500; Bethyl), mouse anti-IKb alpha (1:400; CST), mouse anti-phospho IKb alpha (1:50; Santa Cruz), rabbit anti-phospho CK2A1 (1:25; Thermo Fisher), rabbit anti-phospho Cdc37 (1:50; Novus), mouse anti-phospho NF-κB S529 (1:25; R&D), rabbit anti-Cdc37 (1:100; CST), mouse anti-SQSTM1 (1:50; Santa Cruz), anti rabbit-phospho NF-κB S536 (1:1600; CST), anti rabbit-Akt (pan) (1:400; CST), anti mouse-phospho Akt S473 (1:500; Sigma).
To investigate the potential effects of CK2 activity on NF-κB, NF-κB and NF-κB pS529 were measured by immunofluorescence in activated astrocytes. […] At this timepoint, NF-κB pS529 levels were similar across all treatments, possibly as a result of slower turnover by pNF-κB species.

[9] = system: CK2; assay: CK2 kinase assay in postmortem brain lysates (Csox peptide); type: biochemical, human; details: pretreatment with 20 μM for 30 min
Procedure: Kinase assays. In vitro kinase assays were run using the Cysteine-Sox-Kinase Sensor AQT0696, 96 assay Kit (AssayQuant Tech, CSKS-AQT0696). Compound stocks (1.25×) at concentrations in a 2-fold dilution series were prepared in kinase reaction mixes and added in duplicate to a 384-well white-bottom NBS plates (Corning X) at 20 μL/well. Then, 5 μL active recombinant human CK2a1 kinase (Thermo Fisher PV3248, 5× in Kinase Dilution Buffer) was added to each well, quickly mixed by rotation, and incubated for 5 h at 30° C., with fluorescence readings taken every 3 min (excitation λ=365 nm, emission λ=495-505 nm) on a Promega GloMax Discover Microplate Reader. The final reaction conditions contained 10 μM AQT0696 Csox peptide, 1 mM ATP, 54 mM HEPES pH 7.5, 1.2 mM DTT, 0.012% Brij-35, 0.52 mM EGTA, 1% glycerol, 0.2 mg/mL BSA, 10 mM MgCl2, and 20 nM CK2a1. Slopes corresponding to linear reaction rates were obtained for each compound concentration (RFU/sec), normalized to DMSO controls, and IC50 values were determined by applying the dose response non-linear regression model in GraphPad Prism. […] After sonication and clarification, protein concentration was measured by BCA Assay. CK2 activity was measured as described above, except lysates were used instead of purified kinase at 2 μL/well (˜0.3-0.4 ug protein per reaction). […]

BBB permeability [1] | SMILES | IL6 and IL8 expression ([1]; IL1-β) | target engagement in brain [2] | number of other kinases inhibited >90% [3] | AKT pS473 levels [4] | expression of IL6 and IL8 in IL1-β-activated astrocytes [5] | pCK2/CK2 in nuclei [6] | IκB S32 levels [7] | IL1-β-induced increase of NF-κB nuclear intensity ([8]; after 1 h) | pNF-κB nuclear intensity relative to total NF-κB ([8]; after 5 hours) | CK2-specific fluorescence of phosphorylated Csox peptide in brain lysates [9]
superior permeability | COc1cc(-c2cc(=O)c3cc(Br)cc(Br)c3o2)ncc1O [IN2.2] | reduction | superior target engagement | – | – | – | – | – | – | – | –
– | O=C(O)c1ccc2c(c1)nc(Nc1cccc(Cl)c1)c1ccncc12 [CX4945] | – | – | 28 | reduced | successfully blocked | reduced | decreased | blocked | reduced | blocked
